We go through 25 compounds from patent US4393225A, “AI-77 Compounds and pharmaceutically acceptable salts thereof” (Asahi Kasei Kogyo Kabushiki Kaisha, priority 1979, dated 1983).

In one assay the test system is ulcer. Kind of assay: Anti-ulcer test (restraint and water immersion ulcer in rats, i.p.). The class given is in vivo, Male Wistar rats. The following applies: Rattus norvegicus, ip; 25 mg/kg i.p.; read-out: % Inhibition of Ulcer. How it is done:
The anti-ulcer and anti-edema activity of the compounds was evaluated in efficacy tests described below.
Male Wistar rats weighing about 150 g on average were not fed for 24 hours before the test. Then a solution or suspension of a predetermined concentration of the test compound in physiological saline was administered to them intraperitoneally. One hour after the administration,each rat was restrained in a net cage and submerged in a water both (21° C.) from the tail to xiphistrenun for 6 hours. Test animals were then killed (by dislocation of the cervical vertebrae), the stomach was removed and incised along the curvatura ventriculi major, and the inside wall of the stomach was pathologically examined under microscopic observation. Rats in which the occurrence of an ulceration was substantially not observed were rated O, while others were rated 0.5, 1, 2 or 3, depending on the severity of the ulcer development. The percent inhibition of ulcer was calculated by the following formula: [formula]
For the compound `Cc1ccc(CCNC(=O)CC(N)C(O)C(O)C(=O)NC(CC(C)C)C2Cc3cccc(O)c3C(=O)O2)cc1` (stereo not shown) [VII-1-35], the inhibition in vivo at 25 mg/kg stood at 83%.
The same measure, in the same setting: the same measure for `CNC(CC(N)=O)C(O)C(O)C(=O)NC(CC(C)C)C1Cc2cccc(OC)c2C(=O)O1` (stereo not shown) [VII-23-5]: 89%; for `CCNC(CC(N)=O)C(O)C(OC)C(=O)NC(CC(C)C)C1Cc2cccc(O)c2C(=O)O1` (stereo not shown) [VII-17-3]: 89%; for `CCCCOc1cccc2c1C(=O)OC(C(CC(C)C)NC(=O)C(OC)C(O)C(CC(N)=O)NC(C)=O)C2` (stereo not shown) [VII-34-1]: 66%.
In the case of `Cc1ccc(NC(=O)CC(N)C(O)C(O)C(=O)NC(CC(C)C)C2Cc3cccc(O)c3C(=O)O2)cc1` (stereo not shown) [VII-1-43], the inhibition in vivo at 25 mg/kg stood at 94%.
On the same count and under the same terms, the same measure for `CNC(=O)CC(N)C(O)C(O)C(=O)NC(CC(C)C)C1Cc2cccc(O)c2C(=O)O1` (stereo not shown) [VII-1-2]: 100%; for `CC(=O)Oc1cccc2c1C(=O)OC(C(CC(C)C)NC(=O)C(OC(=O)C(C)C)C(O)C(N)CC(N)=O)C2` (stereo not shown) [VII-3-1]: 78%.
For `CCCC(=O)Oc1cccc2c1C(=O)OC(C(CC(C)C)NC(=O)C(OC(C)=O)C(O)C(N)CC(N)=O)C2` (stereo not shown) [VII-3-2], the inhibition in vivo at 25 mg/kg was determined as 78%.

The assay is the same for the next values; noted with them: Rattus norvegicus, ip; 50 mg/kg i.p.; read-out: % Inhibition of Ulcer.
As for `COc1cccc2c1C(=O)OC(C(CC(C)C)NC(=O)C(O)C1OC(=O)CC1NC(=O)C(Cl)(Cl)Cl)C2` (stereo not shown) [IIIa-5-7], the inhibition in vivo at 50 mg/kg was 44%.
For `CC(C)CC(NC(=O)C(O)C1OC(=O)CC1NC(=O)c1cccs1)C1Cc2cccc(O)c2C(=O)O1` (stereo not shown) [IIIa-1-25], the inhibition in vivo at 50 mg/kg was found to be 66%.
The same measure, in the same setting: the same measure for `CC(C)CC(NC(=O)C(O)C1OC(=O)CC1N)C1Cc2cccc(OCCC3CCCCO3)c2C(=O)O1` (stereo not shown) [IIIa-13-15]: 94%; for `CC(C)CC(=O)Oc1cccc2c1C(=O)OC(C(CC(C)C)NC(=O)C(O)C1C=CC(=O)O1)C2` (stereo not shown) [IVa-3-11]: 44%; for `CCCCNC1CC(=O)OC1C(O)C(=O)NC(CC(C)C)C1Cc2cccc(OCCCBr)c2C(=O)O1` (stereo not shown) [IIIa-22-92]: 94%.
Consider `CC(=O)n1cccc1C(=O)NC1CC(=O)OC1C(O)C(=O)NC(CC(C)C)C1Cc2cccc(O)c2C(=O)O1` (stereo not shown) [IIIa-1-28], for which the inhibition in vivo at 50 mg/kg turned out to be 66%.
Still for that read-out and setting: the same measure for `CCOc1cccc2c1C(=O)OC(C(CC(C)C)NC(=O)C(O)C1OC(=O)CC1NC(=O)C(C)=C(C)Br)C2` (stereo not shown) [IIIa-5-77]: 44%; for `CCOc1cccc2c1C(=O)OC(C(CC(C)C)NC(=O)C(O)C1OC(=O)CC1NC(=O)C1CCC=CO1)C2` (stereo not shown) [IIIa-5-58]: 44%.
With `CCCCCCCCCCCCCCCCCCOc1cccc2c1C(=O)OC(C(CC(C)C)NC(=O)C(O)C1OC(=O)CC1N)C2` (stereo not shown) [IIIa-13-5], the inhibition in vivo at 50 mg/kg is 72%.
The same measure, in the same setting: the same measure for `CC(C)CC(NC(=NCCN1CCOCC1)C(O)C(O)C(N)CC(=O)O)C1Cc2cccc(O)c2C(=O)O1` (stereo not shown) [Vb-1-44]: 94%; for `CCCCCCCCCCCCCCCCCC(=O)Oc1cccc2c1C(=O)OC(C(CC(C)C)NC(=O)C(O)C1OC(=O)CC1N)C2` (stereo not shown) [IIIa-12-3]: 66%; for `CCOc1cccc2c1C(=O)OC(C(CC(C)C)NC(=O)C(O)C1OC(=O)CC1NCC(Cl)(Cl)Cl)C2` (stereo not shown) [IIIa-22-13]: 78%.
The same measure, in the same setting: the same measure for `CCOc1cccc2c1C(=O)OC(C(CC(C)C)NC(=O)C(OC(C)=O)C1OC(=O)CC1N)C2` (stereo not shown) [IIIa-14-1]: 56%; for `CC(Br)=C(C)C(=O)NC1CC(=O)OC1C(O)C(=O)NC(CC(C)C)C1Cc2cccc(O)c2C(=O)O1` (stereo not shown) [IIIa-1-80]: 66%; for `CCCCNC1CC(=O)OC1C(O)C(=O)NC(CC(C)C)C1Cc2cccc(OCCCC)c2C(=O)O1` (stereo not shown) [IIIa-22-76]: 94%.
Consider `CC(C)CC(NC(=O)C(O)C1OC(=O)CC1NC(=O)CCCc1cccs1)C1Cc2cccc(O)c2C(=O)O1` (stereo not shown) [IIIa-1-26], for which the inhibition in vivo at 50 mg/kg is 66%.
The same measure, in the same setting: the same measure for `CC(C)CC(NC(=O)C(O)C1OC(=O)CC1NC(=O)c1cccn1C)C1Cc2cccc(O)c2C(=O)O1` (stereo not shown) [IIIa-1-29]: 66%.
